The values below come from patent publication US8765779B2, “Tricyclic derivatives and their pharmaceutical use and compositions” (Cephalon, Inc., priority 2009, dated 2014).

The structures appear in SMILES notation. Counter-ions that a name gives are not always drawn.

The target in the experiment is T1, human 5-HT6 receptor (Homo sapiens, UniProt P50406).
T1 construct: host or cells: CHO-K1 cells, stably transfected; membranes prepared in house
The experiment can be described thus: Human 5-HT6 Receptor Binding Assay ([3H]LSD displacement, scintillation beads). Particulars: membranes of CHO-K1 cells with recombinant human 5-HT6, 4 nM [3H]LSD; Table 1, class symbols; read-out: h5-HT6 (Ki). As for the experimental part:
Human 5-HT6 Receptor Binding Assay
Membranes were prepared from CHO—K1 cells stably transfected with the human 5-HT6 receptor (Euroscreen; ES-316-C). The cells were grown in Gibco Advanced DMEM-F12 (Cat#12634010) containing 2% dialyzed FBS (Hyclone Cat#SH30079.03). The cells were harvested in phosphate buffered saline (PBS) containing 0.1 mM EDTA and pelleted by centrifugation (1000×g), the supernatant was discarded and the pellets were stored at −80° C. prior to membrane preparation. Membranes were prepared as previously described (J Bio Chem. 1992, 267 (14) 9844-51). Briefly, frozen cell pellet was resuspended in a lysis buffer containing 5 mM Tris-HCl (pH 7.5), 5 mM EDTA and 1 complete EDTA-free protease inhibitor tablet (Roche Applied Science, Indianapolis, Ind.) per 50 mL buffer, and homogenized with a tissue homogenizer. The cell lysate was then centrifuged at 40,000×g for 30 min at 4° C. to collect the membranes. The membrane pellets were washed in membrane buffer (50 mM Tris-HCl (pH 7.5), 0.6 mM EDTA, 5 mM MgCl2, 1 complete EDTA-free protease inhibitor tablet per 50 mL buffer) using a tissue homogenizer. The membranes were centrifuged at 40,000×g for 30 min at 4° C. and the pellets were resuspended in membrane buffer containing 250 mM sucrose, and protein concentration was determined using the Coomassie Plus kit (Pierce Biotechnology, Rockford, Ill.).
Membranes prepared from cells expressing recombinant human 5-HT6 receptor (h5-HT6) were resuspended in assay buffer containing 50 mM Tris HCl, (pH7.4), 4 mM CaCl2, 10 μg/mL saponin, and 0.1% (w/v) ascorbic acid. Membranes were preincubated using 1.75 μg membrane protein and 0.25 mg FlashBlue scintillation beads (PerkinElmer catalogue #FB001) per well at 4° for 30 min. […] Test compounds or assay controls for total and non-specific binding were diluted in DMSO as 100× solutions and serially diluted by half log concentrations on a Perkin Elmer JANUS Automated Workstation. Serotonin (10 μM final concentration) was used to determine non-specific binding in the assay. Plates were read using the Microbeta Trilux 1450 LSC and luminescence counter. Data were analyzed by nonlinear […] using the dose-response equation (variable slope) to calculate IC50 in XLfit4 (ID Business Solutions Inc.): y=(Bottom+((Top−Bottom)/(1+((IC50/x)^Hill slope))))
Ki value was then calculated according to the Cheng-Prusoff method using the equation below (Cheng and Prusoff, 1973): Ki,app=IC50/(1+[radioligand]/Kd))

T1 sequence (P50406 whole entry): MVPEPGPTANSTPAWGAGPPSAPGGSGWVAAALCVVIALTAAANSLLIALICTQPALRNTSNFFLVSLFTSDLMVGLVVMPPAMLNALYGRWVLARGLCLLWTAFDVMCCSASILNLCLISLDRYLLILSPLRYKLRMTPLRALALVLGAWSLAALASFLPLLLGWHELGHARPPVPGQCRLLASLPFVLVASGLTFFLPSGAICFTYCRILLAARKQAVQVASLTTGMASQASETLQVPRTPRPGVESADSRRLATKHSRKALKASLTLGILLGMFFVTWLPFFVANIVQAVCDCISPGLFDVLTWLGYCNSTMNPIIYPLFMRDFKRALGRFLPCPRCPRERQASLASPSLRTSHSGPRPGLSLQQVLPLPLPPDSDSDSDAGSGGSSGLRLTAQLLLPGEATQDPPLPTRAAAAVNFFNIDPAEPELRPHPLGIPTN

`CC1NCCc2c1oc1ccc(S(=O)(=O)c3ccc(F)c(F)c3)cc21` (stereo not shown) [Example 284]: the Ki was less than 500 nM.

Consider `N#Cc1ccc(COc2cccc(S(=O)(=O)c3ccc4c(c3)OC3CNCCC43)c2)cc1` (stereo not shown) [Example 551], for which the inhibitory constant (Ki) was less than 500 nM.

On to `O=S(=O)(Nc1cccc(F)c1)c1ccc2c(c1)C1CCNCC1O2` (stereo not shown) [Example 846], for which the Ki is greater than 1000 nM.

Consider `O=S(=O)(c1cccc(F)c1)c1ccc2oc3c(c2c1)CCNC3` [Example 244, 6-[(3-fluorophenyl)sulfonyl]-1,2,3,4-tetrahydro[1]benzofuro[2,3-c]pyridine], for which the Ki was less than 500 nM.

In the case of `O=S(=O)(c1ccc2c(c1)OC1CNCCC21)c1cccnc1Cl` (stereo not shown) [Example 390], the inhibitory constant (Ki) is less than 500 nM.

With `[O-][S+](c1ccc2oc3c(c2c1)CCNC3)c1cccnc1F` (stereo not shown) [Example 444], the Ki is greater than 1000 nM.

For `[O-][S+](c1ccc2oc3c(c2c1)CCNC3)c1ccccc1-c1ccccc1` (stereo not shown) [Example 279], the Ki is less than 500 nM.

For `O=S(=O)(NCCc1ccccc1)c1ccc2c(c1)C1CCNCC1O2` (stereo not shown) [Example 855], the Ki was greater than 1000 nM.

Turning to `CC1(C)NCCc2c1oc1cc(S(=O)(=O)c3cncc(Cl)c3)ccc21` [Example 376], the Ki is less than 500 nM.

Take `CC(=O)NCC1(C)NCCc2c1oc1cc(S(=O)(=O)c3cccc(F)c3)ccc21` (stereo not shown) [Example 631, N-({7-[(3-fluorophenyl)sulfonyl]-1-methyl-1,2,3,4-tetrahydro[1]benzofuro[2,3-c]pyridin-1-yl}methyl)acetamide]: the Ki was less than 500 nM.

`CC12CCN(CCc3ccccc3)CC1Oc1ccc(OS(=O)(=O)Cc3ccccc3)cc12` (stereo not shown) [Example 811]: the Ki was greater than 1000 nM.

As for `COc1cc(OC(C)C)cc(S(=O)(=O)c2ccc3c(c2)OC2CNCCC32)c1` (stereo not shown) [Example 78], the inhibition constant (Ki) was less than 500 nM.

As to `CCOc1cc(F)cc(S(=O)(=O)c2ccc3c(c2)OC2CNCCC32)c1` (stereo not shown) [Example 401], the Ki was less than 500 nM.

Take `O=S(=O)(c1ccc(OC(F)(F)F)cc1)c1ccc2oc3c(c2c1)CCNC3` [Example 275, 6-{[4-(trifluoromethoxy)phenyl]sulfo-nyl}-1,2,3,4-tetrahydro[1]benzofuro[2,3-c]pyridine]: the inhibitory constant (Ki) fell in the range of 500 to 1000 nM.

Take `O=S(=O)(Oc1ccc2c(c1)OC1CNCCC21)c1ccccc1Cl` (stereo not shown) [Example 654]: the Ki is less than 500 nM.

With `O=S(=O)(c1ccc2c3c(oc2c1)CNCC3)c1cccc(F)c1F` [Example 432], the inhibition constant (Ki) is less than 500 nM.

`O=S(=O)(c1ccc(Oc2ccccc2)cc1)c1ccc2c(c1)OC1CNCCC21` (stereo not shown) [Example 116]: the inhibitory constant (Ki) is less than 500 nM.

Consider `O=S(=O)(c1ccc(-c2ccccc2)cc1)c1ccc2c(c1)OC1CNCCC21` (stereo not shown) [Example 145], for which the Ki is greater than 1000 nM.

As to `O=S(=O)(c1ccccc1)c1ccc2c(c1)OC1CNCCC21` (stereo not shown) [Example 324, 7-(phenylsulfonyl)-1,2,3,4,4a,9a-hexahydro[1]benzofuro[2,3-c]pyridine], the Ki is less than 500 nM.

For `CC(C)Oc1ncccc1S(=O)(=O)c1ccc2oc3c(c2c1)CCNC3` [Example 449], the Ki is less than 500 nM.

For the molecule `O=S(=O)(Oc1ccc2c(c1)C1CCNCC1O2)c1ccccc1` (stereo not shown) [Example 696], the inhibition constant (Ki) was greater than 1000 nM.

Consider `O=S(=O)(Oc1ccc2c(c1)OC1CN(C3CCCCC3)CCC21)c1ccc(Cl)cc1` (stereo not shown) [Example 802], for which the Ki is 500 to 1000 nM.

With `O=[N+]([O-])c1ccc(S(=O)(=O)c2ccc3c4c(oc3c2)CNCC4)cc1` [Example 205], the Ki was less than 500 nM.

Regarding `O=S(=O)(c1cc(F)cc(F)c1)c1ccc2c3c(oc2c1)CNCC3` [Example 107, 7-(3,5-Difluoro-benzenesulfonyl)-1,2,3,4-tetrahydro-benzo[4,5]furo[2,3-c]pyridine hydrochloride], the Ki is less than 500 nM.

Consider `COc1ccc(S(=O)(=O)c2ccc3c4c(oc3c2)CNCC4)cc1` [Example 198], for which the Ki was less than 500 nM.

On to `O=S(=O)(c1ccc2c(c1)OC1CNCCC21)c1cccc2c1CCO2` (stereo not shown) [Example 418], for which the inhibition constant (Ki) is less than 500 nM.

With `Cc1ccc(F)cc1S(=O)(=O)c1ccc2c(c1)OC1CNCCC21` (stereo not shown) [Example 130], the inhibition constant (Ki) is less than 500 nM.

As to `O=S(=O)(Cc1ccccc1)Oc1ccc2c(c1)C1CCNCC1O2` (stereo not shown) [Example 697, 1,2,3,4,4a,9a-hexahydro[1]benzofuro[2,3-c]pyridin-6-yl phenylmethanesulfonate], the Ki is greater than 1000 nM.

Take `CC(C)Oc1cccc(S(=O)(=O)c2ccc3c4c(oc3c2)C2(CCCOC2)NCC4)c1` (racemic) [Example 23, 7-{[3-(propan-2-yloxy)phenyl]sulfonyl}-3,4,5′,6′-tetrahydro-2H,4′H-spiro[1-benzofuro[2,3-c]pyridine-1,3′-pyran]]: the inhibitory constant (Ki) is less than 500 nM.

In the case of `COc1ccc(S(=O)(=O)Oc2ccc3c(c2)OC2CNCCC32)cc1` (stereo not shown) [Example 650], the inhibition constant Ki is less than 500 nM.

For `COc1ccc(S(=O)(=O)c2ccc3oc4c(c3c2)CCNC4)cc1` [Example 245], the Ki is less than 500 nM.

Turning to `CC12CCNCC1Oc1ccc(OS(=O)(=O)CCc3ccccc3)cc12` (stereo not shown) [Example 785], the Ki is greater than 1000 nM.

Regarding `O=S(=O)(c1ccccc1)c1ccc2c(c1)C1CCNCC1O2` (stereo not shown) [Example 334, 6-(phenylsulfonyl)-1,2,3,4,4a,9a-hexahydro[1]benzofuro[2,3-c]pyridine], the inhibition constant (Ki) lay in the range of 500 to 1000 nM.

On to `O=S(=O)(c1cc(F)cc(F)c1)c1ccc2c3c(oc2c1)C1(CCOC1)NCC3` (stereo not shown) [Example 302], for which the inhibitory constant (Ki) is less than 500 nM.

For `O=S(=O)(c1cccc(Cl)c1)c1ccc2c3c(oc2c1)CN(CC(F)(F)F)CC3` [Example 604], the inhibition constant (Ki) is less than 500 nM.

For the molecule `O=S(=O)(Nc1ccccc1F)c1ccc2c(c1)C1CCNCC1O2` (stereo not shown) [Example 839], the inhibition constant (Ki) is greater than 1000 nM.

In the case of `CN1CCC2c3ccc(S(=O)(=O)c4ccccc4)cc3OC2C1` (stereo not shown) [Example 607], the inhibition constant (Ki) was less than 500 nM.

On to `CC(C)Oc1cccc(S(=O)(=O)c2ccc3c4c(oc3c2)C(C)(C(F)F)NCC4)c1` (single isomer, unassigned) [Example 34, 1-(difluoromethyl)-1-methyl-7-{[3-(propan-2-yloxy)phenyl]sulfonyl}-1,2,3,4-tetrahydro[1]benzofuro[2,3-c]pyridine], for which the Ki is less than 500 nM.

Turning to `O=S(=O)(c1ccc2c(c1)OC1CNCCC21)c1cccc(F)c1F` (stereo not shown) [Example 411], the inhibition constant Ki is less than 500 nM.

Consider `O=S(=O)(c1ccc2c(c1)OC1CNCCC21)c1cccnc1OCC(F)(F)F` (stereo not shown) [Example 394], for which the Ki was less than 500 nM.

For the molecule `CC12CCNCC1Oc1ccc(OS(=O)(=O)c3cccc4cccnc34)cc12` (stereo not shown) [Example 770], the inhibition constant Ki is greater than 1000 nM.

Turning to `CC12CCNCC1Oc1ccc(OS(=O)(=O)Cc3cccc(C(F)(F)F)c3)cc12` (stereo not shown) [Example 788], the Ki is less than 500 nM.

For the molecule `O=S(=O)(c1cccc(OC(F)(F)F)c1)c1ccc2c(c1)OC1CNCCC21` (stereo not shown) [Example 166, 7-{[3-(trifluoromethoxy)phenyl]sulfo-nyl}-1,2,3,4,4a,9a-hexahydro[1]benzofuro[2,3-c]pyridine], the inhibitory constant (Ki) was less than 500 nM.

For the molecule `O=S(=O)(Oc1ccc2c(c1)OC1CNCCC21)c1ccc(-c2ccon2)s1` (stereo not shown) [Example 680], the inhibition constant (Ki) was less than 500 nM.

As to `O=S(=O)(c1cccc(Cl)c1)c1ccc2c3c(oc2c1)C(CCBr)NCC3` (stereo not shown) [Example 501, 1-(2-bromoethyl)-7-[(3-chlorophenyl)sulfonyl]-1,2,3,4-tetrahydro[1]benzofuro[2,3-c]pyridine], the inhibition constant Ki was less than 500 nM.

For the molecule `O=S(=O)(c1ccccc1-c1ccccc1)c1cccc2c1OC1CNCCC21` (stereo not shown) [Example 191], the Ki is less than 500 nM.

Consider `COc1ccc(S(=O)(=O)c2ccc3oc4c(c3c2)CCNC4)cc1F` [Example 241], for which the inhibition constant (Ki) was less than 500 nM.

As to `O=S(=O)(Nc1ccc(Cl)cc1Cl)c1ccc2c(c1)C1CCNCC1O2` (stereo not shown) [Example 844], the inhibitory constant (Ki) is greater than 1000 nM.

For the molecule `O=S(=O)(c1cccc(F)c1)c1ccc2oc3c(c2c1)CCNC3C1CC1` (stereo not shown) [Example 517], the Ki is less than 500 nM.

Regarding `Cc1cccc(S(=O)(=O)c2ccc3c4c(oc3c2)C(C)(C)NCC4)n1` [Example 19, 1,1-dimethyl-7-[(6-methylpyridin-2-yl)sulfonyl]-1,2,3,4-tetrahydro[1]benzofuro[2,3-c]pyridine], the inhibitory constant (Ki) was less than 500 nM.

For the molecule `Nc1cccc(S(=O)(=O)c2ccc3oc4c(c3c2)CCNC4)c1` [Example 349], the inhibition constant Ki is less than 500 nM.

As to `O=S(=O)(c1ccc(Cl)cc1)c1ccc2c(c1)C1CCNCC1O2` (stereo not shown) [Example 335], the inhibitory constant (Ki) is greater than 1000 nM.

Usually Ki stands for the equilibrium dissociation constant of an inhibitor or competing ligand from its target.
